# According to US9868711B2, “Phenazine-3-one and phenothiazine-3-one derivatives for treatment of oxidative stress disorders” (BioElectron Technology Corporation, priority 2013, dated 2018):
# pEC50: −log10 of the molar value. Where two headings read alike, the source gives them in different places.
# Test system: Human dermal fibroblasts from Friedreich's Ataxia patients
# Test: Rescue of FRDA fibroblasts stressed by BSO (Calcein AM viability)
# Assay type: cell-based
# Conditions: FRDA fibroblasts GM04078, 1 mM BSO, 48 h
# Procedure: An initial screen was performed to identify compounds effective for the amelioration of redox disorders. Test samples, 4 reference compounds (idebenone, decylubiquinone, Trolox and alpha-tocopherol), and solvent controls were tested for their ability to rescue FRDA fibroblasts stressed by addition of L-buthionine-(S,R)-sulfoximine (BSO), as described in Jauslin et al., Hum. Mol. Genet. 11(24):3055 (2002), Jauslin et al., FASEB J. 17:1972-4 (2003), and International Patent Application WO 2004/003565. […] This specific BSO-mediated cell death can be prevented by administration of antioxidants or molecules involved in the antioxidant pathway, such as alpha-tocopherol, selenium, or small molecule glutathione peroxidase mimetics. However, antioxidants differ in their potency, i.e. the concentration at which they are able to rescue BSO-stressed FRDA fibroblasts.
# MEM (a medium enriched in amino acids and vitamins, catalog no. 1-31F24-I) and Medium 199 (M199, catalog no. 1-21F22-I) with Earle's Balanced Salts, without phenol red, were purchased from Bioconcept. Fetal Calf Serum was obtained from PAA Laboratories. Basic fibroblast growth factor and epidermal growth factor were purchased from PeproTech. Penicillin-streptomycin-glutamine mix, L-buthionine (S,R)-sulfoximine, (+)-alpha-tocopherol, decylubiquinone, and insulin from bovine pancreas were purchased from Sigma. Trolox (6-Hydroxy-2,5,7,8-tetramethylchromane-2-carboxylic acid) was obtained from Fluka. Idebenone was obtained from Chemo Iberica. Calcein AM was purchased from Anaspec. Cell culture medium was made by combining 125 ml M199 EBS, 50 ml Fetal Calf Serum, 100 U/ml penicillin, 100 microgram/ml streptomycin, 2 mM glutamine, 10 microgram/ml insulin, 10 ng/ml EGF, and 10 ng/ml bFGF; MEM EBS was added to make the volume up to 500 ml. A 10 mM BSO solution was prepared by dissolving 444 mg BSO in 200 ml of medium (Invitrogen, Carlsbad, Ca.) with subsequent filter-sterilization. During the course of the experiments, this solution was stored at +4° C. The cells were obtained from the Coriell Cell Repositories (Camden, N.J.; repository number GM04078) and grown in 10 cm tissue culture plates. Every third day, they were split at a 1:3 ratio.
# The test samples were supplied in 1.5 ml glass vials. The compounds were diluted with DMSO, ethanol or PBS to result in a 5 mM stock solution. Once dissolved, they were stored at −20° C. Reference antioxidants (idebenone, decylubiquinone, alpha-tocopherol and Trolox) were dissolved in DMSO.
# Test samples were screened according to the following protocol:
# A culture with FRDA fibroblasts was started from a 1 ml vial with approximately 500,000 cells stored in liquid nitrogen. Cells were propagated in 10 cm cell culture dishes by splitting every third day in a ratio of 1:3 until nine plates were available. Once confluent, fibroblasts were harvested. For 54 micro titer plates (96 well-MTP) a total of 14.3 million cells (passage eight) were re-suspended in 480 ml medium, corresponding to 100 microliters medium with 3,000 cells/well. The remaining cells were distributed in 10 cm cell culture plates (500,000 cells/plate) for propagation. The plates were incubated overnight at 37° C. in a atmosphere with 95% humidity and 5% CO2 to allow attachment of the cells to the culture plate.
# 10% DMSO (242.5 microliters) was added to a well of the microtiter plate. The test compounds were unfrozen, and 7.5 microliters of a 5 mM stock solution was dissolved in the well containing 242.5 microliters of 10% DMSO, resulting in a 150 micromolar master solution. Serial dilutions from the master solution were made. The period between the single dilution steps was kept as short as possible (generally less than 30 seconds). At least 4 hours after attachment into MTP, cells were then treated with the various compound dilutions.
# Plates were kept overnight in the cell culture incubator. […]
# [1] = Homo sapiens, average, compounds of the invention, read-out: Ec50 Average
compound,measurement,setting,value
CN(C)c1ccc2nc3ccc(=O)cc-3sc2c1 [Compound 2],pEC50,[1],8.52
O=c1ccc2nc3ccc(C(F)(F)F)cc3sc-2c1 [Compound 3],pEC50,[1],7.55
"Cc1c(C)c2c(c(C)c1O)CCC(C)(C(=O)O)O2 (stereo not drawn) [Trolox, 6-Hydroxy-2,5,7,8-tetramethylchromane-2-carboxylic acid]",pEC50,"Homo sapiens, first of three experiments, read-out: EC50 Value 1",5.05
Cc1cc(=O)c(C)c2sc3ccccc3nc1-2 [Compound 1],pEC50,[1],8.52
Cc1c(C)c2c(c(C)c1O)CC[C@@](C)(CCC[C@H](C)CCC[C@H](C)CCCC(C)C)O2 [alpha-tocopherol],pEC50,"average of three values, control compounds, read-out: EC50 Average",6.52
same,pEC50,"first of three experiments, read-out: EC50 Value 1",6.40
same,pEC50,"second of three experiments, read-out: EC50 Value 2",6.82
same,pEC50,"third of three experiments, read-out: EC50 Value 3",6.46
COC1=C(OC)C(=O)C(CCCCCCCCCCO)=C(C)C1=O [Idebenone],pEC50,"Homo sapiens, third of three experiments, read-out: EC50 Value 3",6.00
